Measured values published in patent EP1013767A1, “Method of screening for agrochemicals” (AMERICAN CYANAMID COMPANY, priority 1998, dated 2000).
Entries after “also recorded” stand apart in the source; their conditions may differ.

What was measured:
LOX2:Hv:1 = assay: Northern blot analysis of LOX2:Hv:1 mRNA accumulation in primary leaves of barley; format: in vivo, Barley (Hordeum vulgare L.); conditions: for accumulation of LOX transcript: barley seedlings, powdery mildew susceptible and mlo-resistant cultivar, DCINA soil drench 10 mg active ingredient/L soil volume, BTH 1 mM spray; for kinetics of LOX2:Hv:1 transcript accumulation: 45 µM JM compared with 45 µM SA
Procedure: (§1) Barley (Hordeum vulgare L.) mlo-resistant cultivar Salome as well as the susceptible cultivars Pallas and Manchuria were grown as described for example by Hause et al., J. Plant Physiol. 150, 127-132 (1997). Inoculation with conidia of Blumeria graminis f. sp. hordei race A6 (Wiberg, Hereditas 77, 89-148 (1974)) were performed at a density of 10 conidia per mm^2 with the primary leaf of seven-days-old seedlings at the onset of the light period.
(§2) Segments of seven-days-old primary leaves were freshly harvested and either floated on water, freshly prepared (±) JM, or Na-salicylate.
(§3) DCINA (2,6-dichloroisonicotinic acid), formulated as 25 % active ingredient with a wettable powder (WP) carrier (Métraux et al., Advances in molecular genetics of plant microbe interactions. Vol. 1, Kluwer Academic Publishers, Dordrecht, The Netherlands, pp. 432-439 (1991)), was applied to 7-days-old barley seedlings as a soil drench at a final concentration of 10 mg active ingredient/L soil volume. BTH (benzo[1,2,3]-thiadiazole-7-carbothioic acid S-methyl ester) was applied at a concentration of 1 mM by spraying a formulation with WP in distilled water. Controls were treated with WP.
Total RNA was extracted as described for example by Hause et al., Plant Cell Physiol. 37, 641-649 (1996). Northern blot analysis was performed with digoxigenin-Iabelled cDNAs (DIG-High Prime labelling Kit, Boehringer Mannheim) of barley LOX2:Hv:1 (Vörös et al., loc. cit) and barley PR1b (Bryngelsson et al., Mol. Plant-Microbe Int. 7, 267-275 (1994)).

PR1b = assay: Northern blot analysis of PR1b mRNA accumulation in barley; format: in vivo, Barley (Hordeum vulgare L.); conditions: in response to treatment
Procedure: as §1, §2, §3
Total RNA was extracted as described for example by Hause et al., Plant Cell Physiol. 37, 641-649 (1996). […]

PR genes = conditions: wheat; cited from earlier work
powdery mildew fungus = conditions: barley, against the powdery mildew fungus; cited from earlier work

SMILES	accumulation of LOX transcript (LOX2:Hv:1)	LOX2:Hv:1 induction, BTH compared with DCINA (LOX2:Hv:1; in all experiments)	PR1b mRNA accumulation (PR1b)	activation of PR genes (PR genes)	kinetics of LOX2:Hv:1 transcript accumulation (LOX2:Hv:1)	sensitivity of LOX2:Hv:1 (dose-response curves) (LOX2:Hv:1; JM compared with SA treatment, Fig. 1)	LOX2:Hv:1 expression (LOX2:Hv:1; treatment with SA, cultivar Salome, leaf segments, 24 hours (Fig. 1))	activation of SAR (powdery mildew fungus)
CSC(=O)c1cccc2nnsc12 [BTH, benzo[1,2,3]-thiadiazole-7-carbothioic acid S-methyl ester]	accumulation of LOX transcript; also recorded: activate LOX	stronger induced	not pathogen related genes like PR1b	strongly activate				
CCC=CCC1C(=O)CCC1CC(=O)OC (racemic) [JM, jasmonic acid methyl ester]			not found		No differences	slightly higher sensitivity		
O=C(O)c1cc(Cl)nc(Cl)c1 [DCINA, 2,6-dichloroisonicotinic acid]	accumulation of LOX transcript			strongly activate				
O=C(O)c1ccccc1O [SA, salicylic acid]				strongly activate	No differences		induced	activated SAR
